Laboratory results reported in ChEMBL document CHEMBL1909046, “DrugMatrix in vitro pharmacology data”.

Experiments:
[1] = DRUGMATRIX: beta-Lactamase enzyme inhibition (substrate: Nitrocefin); set-up: species or system Bacillus cereus; settings: Not Active = under 50% inhibition at 10 µM
[2] = biological target: Sigma non-opioid intracellular receptor 1 (Homo sapiens, UniProt Q99720); test: DRUGMATRIX: Sigma1 radioligand binding (ligand: [3H] Haloperidol); format: cell membranes, Jurkat, Membrane; settings: jurkat; Not Active = under 50% inhibition at 10 µM
Sequence of Sigma non-opioid intracellular receptor 1 (Q99720 whole entry): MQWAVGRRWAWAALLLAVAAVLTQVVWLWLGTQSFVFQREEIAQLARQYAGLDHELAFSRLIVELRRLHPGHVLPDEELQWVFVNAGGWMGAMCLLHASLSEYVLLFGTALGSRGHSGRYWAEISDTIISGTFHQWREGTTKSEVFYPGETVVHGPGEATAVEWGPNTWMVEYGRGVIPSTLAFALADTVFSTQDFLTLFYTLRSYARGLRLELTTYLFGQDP

[3] = biological target: C-C chemokine receptor type 5 (Homo sapiens, UniProt P51681); format: cell membranes, HEK293, Membrane; settings: hek293; further: in other assays of this panel Not Active means under 50% inhibition at 10 µM
Sequence of C-C chemokine receptor type 5 (P51681 whole entry): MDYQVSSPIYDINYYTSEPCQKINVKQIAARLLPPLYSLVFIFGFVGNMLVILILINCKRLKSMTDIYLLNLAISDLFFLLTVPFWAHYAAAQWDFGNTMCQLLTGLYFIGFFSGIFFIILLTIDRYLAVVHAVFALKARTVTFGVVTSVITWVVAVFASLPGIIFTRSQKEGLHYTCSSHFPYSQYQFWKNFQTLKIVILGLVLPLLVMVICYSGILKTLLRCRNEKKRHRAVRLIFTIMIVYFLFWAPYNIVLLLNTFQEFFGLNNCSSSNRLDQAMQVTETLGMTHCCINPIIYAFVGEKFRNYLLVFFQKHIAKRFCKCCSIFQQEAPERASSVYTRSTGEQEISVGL

[4] = biological target: T1, Muscarinic acetylcholine receptor M5 (Homo sapiens, UniProt P08912); format: cell membranes, CHO-K1, Membrane; settings: cho-k1; further: in other assays of this panel Not Active means under 50% inhibition at 10 µM
T1 sequence (P08912 whole entry): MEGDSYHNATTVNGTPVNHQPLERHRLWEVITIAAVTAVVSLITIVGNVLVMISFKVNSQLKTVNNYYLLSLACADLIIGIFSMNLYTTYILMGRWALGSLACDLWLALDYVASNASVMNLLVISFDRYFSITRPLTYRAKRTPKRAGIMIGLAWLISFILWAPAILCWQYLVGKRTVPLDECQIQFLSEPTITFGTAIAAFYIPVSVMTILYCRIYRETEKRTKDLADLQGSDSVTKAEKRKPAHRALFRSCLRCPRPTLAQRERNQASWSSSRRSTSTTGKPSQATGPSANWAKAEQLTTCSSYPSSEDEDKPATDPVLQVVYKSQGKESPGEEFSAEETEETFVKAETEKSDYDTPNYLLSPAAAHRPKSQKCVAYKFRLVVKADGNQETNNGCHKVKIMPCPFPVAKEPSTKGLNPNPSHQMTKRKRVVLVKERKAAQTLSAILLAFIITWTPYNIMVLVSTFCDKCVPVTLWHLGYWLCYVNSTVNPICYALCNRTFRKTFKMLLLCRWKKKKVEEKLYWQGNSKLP

[5] = biological target: T2, Neuropeptide Y receptor type 1 (Homo sapiens, UniProt P25929); format: cell membranes, Membrane; settings: sk-n-mc; further: in other assays of this panel Not Active means under 50% inhibition at 10 µM
T2 sequence (P25929 whole entry): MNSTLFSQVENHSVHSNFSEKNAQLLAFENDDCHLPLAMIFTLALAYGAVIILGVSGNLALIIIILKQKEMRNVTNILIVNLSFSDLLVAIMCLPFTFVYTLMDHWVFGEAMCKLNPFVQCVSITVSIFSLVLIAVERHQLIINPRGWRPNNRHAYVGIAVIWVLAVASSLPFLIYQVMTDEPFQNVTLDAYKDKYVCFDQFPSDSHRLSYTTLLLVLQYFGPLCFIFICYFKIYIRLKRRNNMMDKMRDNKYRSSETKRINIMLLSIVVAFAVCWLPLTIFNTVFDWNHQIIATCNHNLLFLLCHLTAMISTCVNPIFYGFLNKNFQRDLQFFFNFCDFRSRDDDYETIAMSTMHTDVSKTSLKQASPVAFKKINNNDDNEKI

[6] = DRUGMATRIX: Phosphodiesterase PDE3 enzyme inhibition (substrate: [3H]cAMP + cAMP); format: tissue-based, Homo sapiens; settings: platelet; Not Active = under 50% inhibition at 10 µM
[7] = biological target: Tyrosine-protein kinase Lck (Homo sapiens, UniProt P06239); test: DRUGMATRIX: Protein Tyrosine Kinase, LCK enzyme inhibition (substrate: Poly(Glu:Tyr)); format: cell-based, Insect cells; settings: insect cells; Not Active = under 50% inhibition at 10 µM
Sequence of Tyrosine-protein kinase Lck (P06239 whole entry): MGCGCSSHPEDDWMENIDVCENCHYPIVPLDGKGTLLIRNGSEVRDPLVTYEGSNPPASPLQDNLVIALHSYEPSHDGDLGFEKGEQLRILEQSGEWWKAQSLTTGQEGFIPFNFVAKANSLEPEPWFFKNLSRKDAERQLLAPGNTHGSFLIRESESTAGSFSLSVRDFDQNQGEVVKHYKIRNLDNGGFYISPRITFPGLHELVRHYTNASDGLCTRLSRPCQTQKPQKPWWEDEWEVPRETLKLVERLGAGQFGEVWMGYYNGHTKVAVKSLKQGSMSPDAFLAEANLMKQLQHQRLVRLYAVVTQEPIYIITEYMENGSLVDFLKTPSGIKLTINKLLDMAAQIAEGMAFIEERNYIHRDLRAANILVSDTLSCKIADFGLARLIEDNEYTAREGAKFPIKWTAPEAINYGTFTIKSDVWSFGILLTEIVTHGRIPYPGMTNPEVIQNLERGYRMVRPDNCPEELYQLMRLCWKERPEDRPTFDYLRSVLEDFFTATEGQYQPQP

OC[C@H]1OC2C3[C@@H](CO)OC(O[C@H]4[C@H](O)[C@@H](O)[C@@H](O[C@H]5[C@H](O)[C@@H](O)[C@@H](O[C@H]6[C@H](O)[C@@H](O)[C@@H](O[C@H]7[C@H](O)[C@@H](O)[C@@H](O[C@H]8[C@H](O)[C@@H](O)[C@@H](O[C@H]9[C@H](O)[C@@H](O)C(OC1[C@H](O)[C@H]2O)O[C@@H]9CO)O[C@@H]8CO)O[C@@H]7CO)O[C@@H]6CO)O[C@@H]5CO)O[C@@H]4CO)[C@H](O)[C@H]3O
IC50 [1]: Not Active
Ki [1]: Not Active
IC50 [2]: Not Active
IC50 [3]: Not Active
IC50 [4]: Not Active
IC50 [5]: Not Active
IC50 [6]: Not Active
Ki [6]: Not Active
IC50 [7]: Not Active

C=CCO [ALLYL ALCOHOL]
IC50 [1]: Not Active
Ki [1]: Not Active
IC50 [2]: Not Active
IC50 [3]: Not Active
IC50 [4]: Not Active
IC50 [5]: Not Active
IC50 [6]: Not Active
Ki [6]: Not Active
IC50 [7]: Not Active

C[C@]12CC[C@@H](O)C[C@@H]1CC[C@@H]1[C@@H]2CC[C@]2(C)C(=O)CC[C@@H]12 [ANDROSTERONE]
IC50 [1]: Not Active
Ki [1]: Not Active
IC50 [2]: Not Active
IC50 [3]: Not Active
IC50 [4]: Not Active
IC50 [5]: Not Active
IC50 [6]: Not Active
Ki [6]: Not Active
IC50 [7]: Not Active

COC(=O)Nc1nc2ccc(Sc3ccccc3)cc2[nH]1 [FENBENDAZOLE]
IC50 ([1]; read-out: IC50): 5.99 µM
IC50 [2]: Not Active
IC50 [3]: Not Active
IC50 [4]: Not Active
IC50 [5]: Not Active
IC50 [6]: Not Active
Ki [6]: Not Active
IC50 [7]: Not Active

C#C[C@]1(O)CC[C@H]2[C@@H]3CCC4=CC(=O)CC[C@@H]4[C@H]3CC[C@@]21C [NORETHINDRONE]
IC50 [1]: Not Active
Ki [1]: Not Active
IC50 [2]: Not Active
IC50 [3]: Not Active
IC50 [4]: Not Active
IC50 [5]: Not Active
IC50 [6]: Not Active
Ki [6]: Not Active
IC50 [7]: Not Active

O=C(Nc1ccc(Cl)c(Cl)c1)c1cc(Cl)cc(Cl)c1O [3,3',4',5-TETRACHLOROSALICYLANILIDE]
IC50 [1]: Not Active
Ki [1]: Not Active
IC50 [2]: Not Active
IC50 [3]: Not Active
IC50 [4]: Not Active
IC50 [5]: Not Active
IC50 [6]: Not Active
Ki [6]: Not Active
IC50 [7]: Not Active

CCN(CCO)CCCC(C)Nc1ccnc2cc(Cl)ccc12 (stereo unspecified) [HYDROXYCHLOROQUINE]
IC50 [1]: Not Active
Ki [1]: Not Active
IC50 [2]: Not Active
IC50 [3]: Not Active
IC50 [4]: Not Active
IC50 [5]: Not Active
IC50 [6]: Not Active
Ki [6]: Not Active
IC50 [7]: Not Active

CC1(COc2ccc(CC3SC(=O)NC3=O)cc2)CCCCC1 (stereo unspecified) [CIGLITAZONE]
IC50 [1]: Not Active
Ki [1]: Not Active
IC50 [2]: Not Active
IC50 [3]: Not Active
IC50 [4]: Not Active
IC50 [5]: Not Active
IC50 [6]: Not Active
Ki [6]: Not Active
IC50 [7]: Not Active

COc1cc([C@@H]2c3cc4c(cc3[C@H](O)[C@H]3COC(=O)[C@H]23)OCO4)cc(OC)c1OC [PODOFILOX]
IC50 [1]: Not Active
Ki [1]: Not Active
IC50 [2]: Not Active
IC50 [3]: Not Active
IC50 [4]: Not Active
IC50 [5]: Not Active
IC50 [6]: Not Active
Ki [6]: Not Active
IC50 [7]: Not Active

COC(=O)C[C@](O)(CCC(C)(C)O)C(=O)O[C@@H]1C(OC)=C[C@]23CCCN2CCc2cc4c(cc2[C@H]13)OCO4 [HARRINGTONINE]
IC50 [1]: Not Active
Ki [1]: Not Active
IC50 [2]: Not Active
IC50 [3]: Not Active
IC50 [4]: Not Active
IC50 [5]: Not Active
IC50 [6]: Not Active
Ki [6]: Not Active
IC50 [7]: Not Active

CCCCCCNC(=O)n1cc(F)c(=O)[nH]c1=O [CARMOFUR]
IC50 [1]: Not Active
Ki [1]: Not Active
IC50 [2]: Not Active
IC50 [3]: Not Active
IC50 [4]: Not Active
IC50 [5]: Not Active
IC50 [6]: Not Active
Ki [6]: Not Active
IC50 [7]: Not Active

O=c1[nH]cnc2c1ncn2[C@H]1CC[C@@H](CO)O1 [DIDANOSINE]
IC50 [1]: Not Active
Ki [1]: Not Active
IC50 [2]: Not Active
IC50 [3]: Not Active
IC50 [4]: Not Active
IC50 [5]: Not Active
IC50 [6]: Not Active
Ki [6]: Not Active
IC50 [7]: Not Active

O=C(O)CO [GLYCOLIC ACID]
IC50 [1]: Not Active
Ki [1]: Not Active
IC50 [2]: Not Active
IC50 [3]: Not Active
IC50 [4]: Not Active
IC50 [5]: Not Active
IC50 [6]: Not Active
Ki [6]: Not Active
IC50 [7]: Not Active

CC(C)Cc1ccc([C@H](C)C(=O)O)cc1 [DEXIBUPROFEN]
IC50 [1]: Not Active
Ki [1]: Not Active
IC50 [2]: Not Active
IC50 [3]: Not Active
IC50 [4]: Not Active
IC50 [5]: Not Active
IC50 [6]: Not Active
Ki [6]: Not Active
IC50 [7]: Not Active

CC(C)(C#N)c1cc(Cn2cncn2)cc(C(C)(C)C#N)c1 [ANASTROZOLE]
IC50 [1]: Not Active
Ki [1]: Not Active
IC50 [2]: Not Active
IC50 [3]: Not Active
IC50 [4]: Not Active
IC50 [5]: Not Active
IC50 [6]: Not Active
Ki [6]: Not Active
IC50 [7]: Not Active

O=C1c2ccccc2C(=O)C1c1ccccc1 [PHENINDIONE]
IC50 [1]: Not Active
Ki [1]: Not Active
IC50 [2]: Not Active
IC50 [3]: Not Active
IC50 [4]: Not Active
IC50 [5]: Not Active
IC50 [6]: Not Active
Ki [6]: Not Active
IC50 [7]: Not Active

NC(=O)NC(=O)Cc1ccccc1 [PHENACEMIDE]
IC50 [1]: Not Active
Ki [1]: Not Active
IC50 [2]: Not Active
IC50 [3]: Not Active
IC50 [4]: Not Active
IC50 [5]: Not Active
IC50 [6]: Not Active
Ki [6]: Not Active
IC50 [7]: Not Active

O=C(NCCN1CCOCC1)c1ccc(Cl)cc1 [MOCLOBEMIDE]
IC50 [1]: Not Active
Ki [1]: Not Active
IC50 [2]: Not Active
IC50 [3]: Not Active
IC50 [4]: Not Active
IC50 [5]: Not Active
IC50 [6]: Not Active
Ki [6]: Not Active
IC50 [7]: Not Active

OC[C@H]1O[C@@H]2O[C@H]3[C@H](O)[C@@H](O)[C@@H](O[C@H]4[C@H](O)[C@@H](O)[C@@H](O[C@H]5[C@H](O)[C@@H](O)[C@@H](O[C@H]6[C@H](O)[C@@H](O)[C@@H](O[C@H]7[C@H](O)[C@@H](O)[C@@H](O[C@H]1[C@H](O)[C@H]2O)O[C@@H]7CO)O[C@@H]6CO)O[C@@H]5CO)O[C@@H]4CO)O[C@@H]3CO [ALFADEX]
IC50 [1]: Not Active
Ki [1]: Not Active
IC50 [2]: Not Active
IC50 [3]: Not Active
IC50 [4]: Not Active
IC50 [5]: Not Active
IC50 [6]: Not Active
Ki [6]: Not Active
IC50 [7]: Not Active

ClC1=C(Cl)[C@]2(Cl)[C@@H]3[C@@H]4C[C@@H]([C@H]5O[C@@H]45)[C@@H]3[C@@]1(Cl)C2(Cl)Cl [DIELDRIN]
IC50 [1]: Not Active
Ki [1]: Not Active
IC50 [2]: Not Active
IC50 [3]: Not Active
IC50 [4]: Not Active
IC50 [5]: Not Active
IC50 [6]: Not Active
Ki [6]: Not Active
IC50 [7]: Not Active

O=c1[nH]c2ccccc2c2ccccc12
IC50 [1]: Not Active
Ki [1]: Not Active
IC50 [2]: Not Active
IC50 [3]: Not Active
IC50 [4]: Not Active
IC50 [5]: Not Active
IC50 [6]: Not Active
Ki [6]: Not Active
IC50 [7]: Not Active

CCC1(c2ccccc2)C(=O)NC(=O)NC1=O [PHENOBARBITAL]
IC50 [1]: Not Active
Ki [1]: Not Active
IC50 [2]: Not Active
IC50 [3]: Not Active
IC50 [4]: Not Active
IC50 [5]: Not Active
IC50 [6]: Not Active
Ki [6]: Not Active
IC50 [7]: Not Active

Nc1ccc(C(=O)O)c(O)c1 [AMINOSALICYLIC ACID]
IC50 [1]: Not Active
Ki [1]: Not Active
IC50 [2]: Not Active
IC50 [3]: Not Active
IC50 [4]: Not Active
IC50 [5]: Not Active
IC50 [6]: Not Active
Ki [6]: Not Active
IC50 [7]: Not Active
